Source: US20260250250A1, “3-(SULPHONYL OR SULFONIMIDOYL)PROP-2-EN-1-YL]-2-OXO-1,2-DIHYDROPYRIDINE-3-CARBOXAMIDE DERIVATIVES” (Flinder Therapeutics B.V., priority 2022, published 2026)
Counter-ions that a name gives are not always drawn.

Experiments:
[1] = molecular target: T1, human E3 ubiquitin-protein ligase RNF31 (HOIP) (Homo sapiens, UniProt Q96EP0); assay: Cell-free HTRF-based HOIP inhibition assay; format: biochemical
T1 sequence (Q96EP0 695-1072 limits assumed): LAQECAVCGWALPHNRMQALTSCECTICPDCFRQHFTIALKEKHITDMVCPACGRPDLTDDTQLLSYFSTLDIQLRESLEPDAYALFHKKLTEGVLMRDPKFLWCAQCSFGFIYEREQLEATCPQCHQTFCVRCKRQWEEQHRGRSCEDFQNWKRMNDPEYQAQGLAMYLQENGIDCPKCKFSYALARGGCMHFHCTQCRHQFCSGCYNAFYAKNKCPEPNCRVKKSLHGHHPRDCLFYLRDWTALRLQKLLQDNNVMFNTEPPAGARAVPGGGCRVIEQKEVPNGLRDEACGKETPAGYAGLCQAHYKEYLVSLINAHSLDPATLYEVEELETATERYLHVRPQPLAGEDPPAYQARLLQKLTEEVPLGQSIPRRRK
How it was run: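 HTRF read (ex 337 nm; em 665 and 620 nm) after a 2.5 h, 25° C. ubiquitination step started by adding E2 plus substrates. Before that, E. coli-expressed human HOIP fragment and E1 were incubated 1 h at 25° C. with compound at 100-0.005 μM, 1% DMSO final.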

NF-κB signaling pathway = assay: Cell-based dual luciferase NF-κB reporter assay (HEK293 cells, TNF stimulated); details: Homo sapiens, HEK293
Protocol: Dual-luciferase reporter assay was designed to find inhibitors of HOIP affecting NF-κB signaling pathway. The assay was performed in HEK293 cells which were transfected with plasmids coding for Firefly and NanoLuc luciferases. The NanoLuc luciferase plasmid contains NF-κB response element which determines its expression.
The assay was run following standard dual-luciferase protocols. The assay consists of a few steps: • compounds were dispensed at a concentration range: 100-0.005 μM with a final DMSO concentration of 1% of final volume (25 μL); • cells were stimulated after 30 min with 2.5 ng/mL TNF; and • after 6 h Firefly and NanoLuc luciferase activities are determined according to the procedure described by the manufacturer of Nano-Glo Dual-Luciferase Reporter Assay System.

[2] = test system: bladder carcinoma RT4 cell line; assay: TNF-α-induced cytotoxicity assay (CellTiter-Glo viability); format: cell-based; details: Homo sapiens, RT-4, 72 h
How it was run: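 RT4 bladder carcinoma cells, 1000 per well, stimulated with 1.25 ng/mL TNFα together with compound for 72 h at 37° C., 5% CO2. Viability read by CellTiter-Glo luminescence, proportional to cellular ATP, as a measure of HOIP-dependent cytotoxicity.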

| SMILES | IC50 [1] [nM] | IC50 (NF-κB signaling pathway) [nM] | IC50 [2] [nM] |
| --- | --- | --- | --- |
| CC1(C)CCc2[nH]c(=O)c(C(=O)NC/C=C/S(=O)(=O)c3ccccc3)cc2C1 [Example 48, N-[(2E)-3-(benzenesulfonyl)prop-2-en-1-yl]-6,6-dimethyl-2-oxo-1,2,5,6,7,8-hexahydroquinoline-3-carboxamide] | ≤ 1000 | ≤ 1000 | ≤ 1000 |
| COc1ccc(S(=N)(=O)/C=C/CNC(=O)c2cc3c([nH]c2=O)CCCC3)cc1F (stereo not drawn) [Example 30, N-[(2E)-3-[(3-fluoro-4-methoxyphenyl)(imino)oxo-λ^6-sulfanyl]prop-2-en-1-yl]-2-oxo-1,2,5,6,7,8-hexahydroquinoline-3-carboxamide] | ≤ 100 | ≤ 1000 | ≤ 1000 |
| O=C(NC/C=C/S(=O)(=O)c1ccc(Cl)cc1)c1cc2ccccc2[nH]c1=O [Example 28, N-[(2E)-3-(4-chlorobenzenesulfonyl)prop-2-en-1-yl]-2-oxo-1,2-dihydroquinoline-3-carboxamide] | ≤ 100 | ≤ 1000 | ≤ 1000 |
| O=C(NC/C=C/S(=O)(=O)c1ccccc1)c1cc2c([nH]c1=O)CCN(Cc1ccccc1)C2 [Example 8, N-[(2E)-3-(benzenesulfonyl)prop-2-en-1-yl]-6-benzyl-2-oxo-1,2,5,6,7,8-hexahydro-1,6-naphthyridine-3-carboxamide] | ≤ 1000 | ≤ 1000 | ≤ 1000 |
| COc1ccc(S(=O)(=O)/C=C/CNC(=O)c2cc3c([nH]c2=O)CCCC3)cc1F [Example 19, N-[(2E)-3-(3-fluoro-4-methoxybenzenesulfonyl)prop-2-en-1-yl]-2-oxo-1,2,5,6,7,8-hexahydroquinoline-3-carboxamide] | ≤ 100 | ≤ 1000 | ≤ 1000 |
| O=C(NC/C=C/S(=O)(=O)c1ccc(F)cc1Cl)c1cc2c([nH]c1=O)CCCC2 [Example 33, N-[(2E)-3-(2-chloro-4-fluorobenzenesulfonyl)prop-2-en-1-yl]-2-oxo-1,2,5,6,7,8-hexahydroquinoline-3-carboxamide] | ≤ 100 | ≤ 1000 | ≤ 1000 |
| O=C(NC/C=C/S(=O)(=O)c1ccc(F)cc1F)c1cc2c([nH]c1=O)CCC2 [Example 42, N-[(2E)-3-(2,4-difluorobenzenesulfonyl)prop-2-en-1-yl]-2-oxo-1H,2H,5H,6H,7H-cyclopenta[b]pyridine-3-carboxamide] | ≤ 1000 | ≤ 10000 | ≤ 1000 |
| O=C(NC/C=C/S(=O)(=O)c1ccccc1)c1cc2c([nH]c1=O)CCNC2 [Example 66, N-[(2E)-3-(benzenesulfonyl)prop-2-en-1-yl]-2-oxo-1,2,5,6,7,8-hexahydro-1,6-naphthyridine-3-carboxamide hydrochloride] | ≤ 10000 | ≤ 10000 | ≤ 10000 |
| O=C(NC/C=C/S(=O)(=O)c1ccccc1)c1cc2c([nH]c1=O)CCC(F)(F)C2 [Example 49, N-[(2E)-3-(benzenesulfonyl)prop-2-en-1-yl]-6,6-difluoro-2-oxo-1,2,5,6,7,8-hexahydroquinoline-3-carboxamide] | ≤ 1000 | ≤ 10000 | ≤ 10000 |
| CC(C)(C)OC(=O)N1CCc2[nH]c(=O)c(C(=O)NC/C=C/S(=O)(=O)c3ccc(Cl)cc3)cc2C1 [Example 27, tert-butyl 3-{[(2E)-3-(4-chlorobenzenesulfonyl)prop-2-en-1-yl]carbamoyl}-2-oxo-1,2,5,6,7,8-hexahydro-1,6-naphthyridine-6-carboxylate] | ≤ 100 | ≤ 1000 | ≤ 1000 |

Further lines, with some results ahead:

| IC50 [1] [nM] | IC50 (NF-κB signaling pathway) [nM] | SMILES | IC50 [2] [nM] |
| --- | --- | --- | --- |
| ≤ 100 | ≤ 1000 | O=C(NC/C=C/S(=O)(=O)c1ccc(Cl)cc1)c1cc2c([nH]c1=O)CCN(C(=O)OCC1CC1(F)F)C2 (stereo not drawn) [Example 86, (2,2-difluorocyclopropyl)methyl 3-{[(2E)-3-(4-chlorobenzenesulfonyl)prop-2-en-1-yl]carbamoyl}-2-oxo-1,2,5,6,7,8-hexahydro-1,6-naphthyridine-6-carboxylate] | ≤ 10000 |
| ≤ 1000 | ≤ 100000 | O=C(NC/C=C/S(=O)(=O)c1ccccc1)c1cc2c([nH]c1=O)CCN(C(=O)OCCN1CCCCC1=O)C2 [Example 83, 2-(2-Oxopiperidin-1-yl)ethyl 3-{[(2E)-3-(benzenesulfonyl)prop-2-en-1-yl]carbamoyl}-2-oxo-1,2,5,6,7,8-hexahydro-1,6-naphthyridine-6-carboxylate] | ≤ 100000 |
| ≤ 100 | ≤ 10000 | N=S(=O)(/C=C/CNC(=O)c1cc2c([nH]c1=O)CCN(C(=O)OCC1CC1)C2)c1ccc(F)cc1 (stereo not drawn) [Example 68, cyclopropylmethyl 3-{[(2E)-3-[(4-fluorophenyl)(imino)oxo-A*-sulfanyl]prop-2-en-1-yl]carbamoyl}-2-oxo-1,2,5,6,7,8-hexahydro-1,6-naphthyridine-6-carboxylate] | ≤ 10000 |
| ≤ 100 | ≤ 1000 | O=C(NC/C=C/S(=O)(=O)c1ccccc1)c1cc2c([nH]c1=O)CCN(C(=O)OCC1CC1)C2 [Example 69, cyclopropylmethyl 3-{[(2E)-3-(benzenesulfonyl)prop-2-en-1-yl]carbamoyl}-2-oxo-1,2,5,6,7,8-hexahydro-1,6-naphthyridine-6-carboxylate] | ≤ 1000 |
| ≤ 100 | ≤ 1000 | COc1ccc(S(=N)(=O)/C=C/CNC(=O)c2cc3c([nH]c2=O)CCN(C(=O)OCC2CC2)C3)cc1F (stereo not drawn) [Example 98, cyclopropylmethyl 3-{[(2E)-3-[(3-fluoro-4-methoxyphenyl)(imino)oxo-λ^6-sulfanyl]prop-2-en-1-yl]carbamoyl}-2-oxo-1,2,5,6,7,8-hexahydro-1,6-naphthyridine-6-carboxylate] | ≤ 10000 |
| ≤ 1000 | ≤ 1000 | O=C(NC/C=C/S(=O)(=O)c1ccccc1)c1cc2c([nH]c1=O)CCN(C(=O)OCCc1ccc(Cl)cc1)C2 [Example 122, 2-(4-chlorophenyl)ethyl 3-{[(2E)-3-(benzenesulfonyl)prop-2-en-1-yl]carbamoyl}-2-oxo-1,2,5,6,7,8-hexahydro-1,6-naphthyridine-6-carboxylate] | ≤ 1000 |
| ≤ 1000 | ≤ 10000 | O=C(NCC=CS(=O)(=O)c1ccccc1)c1cc2c([nH]c1=O)CCN(C(=O)OC1CCOC1)C2 [Example 81, (3S)-Oxolan-3-vi 3-{[(2E)-3-(benzenesulfonyl)prop-2-en-1-yl]carbamoyl}-2-oxo-1,2,5,6,7,8-hexahydro-1,6-naphthyridine-6-carboxylate] | ≤ 10000 |
| ≤ 1000 | ≤ 100000 | N=S(=O)(/C=C/CNC(=O)c1cc2c([nH]c1=O)CCN(C(=O)OCCF)C2)c1ccccc1 (stereo not drawn) [Example 181, 2-fluoroethyl 3-{[(2E)-3-[imino(oxo)phenyl-λ^6-sulfanyl]prop-2-en-1-yl]carbamoyl}-2-oxo-1,2,5,6,7,8-hexahydro-1,6-naphthyridine-6-carboxylate] | ≤ 10000 |
| ≤ 1000 | ≤ 10000 | O=C(NC/C=C/S(=O)(=O)c1ccc(F)cc1Cl)c1cc(-c2ccccc2)c[nH]c1=O [Example 128, N-[(2E)-3-(2-chloro-4-fluorobenzenesulfonyl)prop-2-en-1-yl]-2-oxo-5-phenyl-1,2-dihydropyridine-3-carboxamide] | ≤ 10000 |
| ≤ 1000 | ≤ 100000 | N=S(=O)(/C=C/CNC(=O)c1cc2c([nH]c1=O)CCN(C(=O)OCC(F)F)C2)c1ccccc1 (stereo not drawn) [Example 182, 2,2-difluoroethyl 3-{[(2E)-3-[imino(oxo)phenyl-λ^6-sulfanyl]prop-2-en-1-yl]carbamoyl}-2-oxo-1,2,5,6,7,8-hexahydro-1,6-naphthyridine-6-carboxylate] | ≤ 10000 |
| ≤ 100 | ≤ 1000 | Cn1ncc2c(CN3CCc4[nH]c(=O)c(C(=O)NC/C=C/S(=O)(=O)c5ccccc5)cc4C3)cccc21 [Example 121, N-[(2E)-3-(benzenesulfonyl)prop-2-en-1-yl]-6-[(1-methyl-1H-indazol-4-yl)methyl]-2-oxo-1,2,5,6,7,8-hexahydro-1,6-naphthyridine-3-carboxamide] | ≤ 10000 |
| ≤ 1000 | ≤ 1000 | CC(OC(=O)N1CCc2[nH]c(=O)c(C(=O)NC/C=C/S(=O)(=O)c3ccccc3)cc2C1)c1c(F)cccc1F (stereo not drawn) [Example 91, 1-(2,6-difluorophenyl)ethyl 3-{[(2E)-3-(benzenesulfonyl)prop-2-en-1-yl]carbamoyl}-2-oxo-1,2,5,6,7,8-hexahydro-1,6-naphthyridine-6-carboxylate] | ≤ 1000 |
